“Also recorded” adds a separate entry of the source.
Test system: CD8+ and CD8− DC
Test: Cytokine production by splenic DC subsets (Luminex)
Assay type: cell-based, mouse
Protocol: Splenic CD8+ and CD8− DC were isolated from DBA/1 mice as above and cultured in 96-well plates over time in the presence or absence of ISL-positive (65-79*0401) or ISL-negative (65-79*0402) peptides (50 μg/ml). At various time points thereafter, supernatants were collected and assayed for cytokine content, using the Luminex platform.
DBA/1 splenic unfractionated CD11c+ DCs (CD11c+), or their purified CD11c+CD8+ DCs (CD8+) or CD11c+CD8− DCs (CD8−) subsets were cultured with the ISL 65-79*0401 or ISL-negative control 65-79*0402 or medium. Supernatants were collected at different time points and assayed for cytokine content using a Luminex platform.
To determine the rate of NO production, cells were loaded with 20 μM of the fluorescent NO probe 4,5-diaminofluorescein diacetate (DAF-2DA) and the fluorescence level was recorded every 5 minutes over a period of 500 minutes using a Fusion αHT system (PerkinElmer Life Sciences) at an excitation wavelength of 488 nm and emission wavelength of 515 nm. To determine IDO enzymatic activity, the generation of its product, kynurenine was measured (Takikawa et al. 1988. J Biol Chem 263:2041-2048.; herein incorporated by reference in its entirety). Cytokine concentrations were measured in cell culture supernatants using a Luminex platform (Millipore Corporation, Danvers, Mass.). In some experiments, cytokines were determined using ELISA (Quantikine®, R&D Systems, Minneapolis, Minn.) following the manufacture's instruction.

In the case of H-KDLLEQKRAAVDTYC-NH2 [65-79*0401], the “IL-6 / cytokine production” value (CD11c+CD8+ DCs, 50 μg/ml peptide) is reported as “no production of any cytokines; also recorded: not in the CD11c+CD8+ subset”, the “time point of IL-6 peak” value (CD11c+CD8− DCs) is reported as 24 h and the IL-6 production (CD11c+CD8− DCs, 50 μg/ml peptide) is reported as “robust production”. For the same substance, the “production of other cytokines (IL-4, IL-10, IL-12, IL-1β, TGFβ)” value (splenic DCs) was “did not show any increased production”.

From patent US9555086B2, “Compositions and methods for inducing an immune response” (The Regents of the University of Michigan, priority 2010, dated 2017)
